Test system: MV-4-11 cells
Experiment: Gene expression microarray analysis (Affymetrix PrimeView) and GSEA
Type: cell-based, human
Set-up: RFU PODN (11730768_x_at) / Fold change /veh PODN (11730768_x_at) / RFU LINC00158 (11744669_a_at) / Fold change /veh LINC00158 (11744669_a_at) / RFU DUSP10 (11751237_a_at) / Fold change /veh DUSP10 (11751237_a_at) / RFU ID3 (11757404_x_at) / Fold change /veh ID3 (11757404_x_at) / RFU PLEKHG5 (11737974_s_at) / Fold change /veh PLEKHG5 (11737974_s_at) / RFU LRRC4B (11730491_at) / Fold change /veh LRRC4B (11730491_at) / RFU GIMAP4 (11747438_a_at) / Fold change /veh GIMAP4 (11747438_a_at) / RFU KRT8 (11758183_x_at) / Fold change /veh KRT8 (11758183_x_at) / RFU CNN1 (11734310_a_at) / Fold change /veh CNN1 (11734310_a_at) / RFU VPS37D (11726825_at) / Fold change /veh VPS37D (11726825_at) / RFU C10orf10 (11716522_x_at) / Fold change /veh C10orf10 (11716522_x_at) / RFU KIR2DL2 /// KIR2DL4 /// KIR2DL5A /// KIR2DL5B /// KIR2DS1 /// KIR2DS2 /// KIR2DS3 /// KIR2DS4 /// KIR3DL3 /// KIR3DL3 /// KIR3DS1 (11738374_at) / Fold change /veh KIR2DL2 /// KIR2DL4 /// KIR2DL5A /// KIR2DL5B /// KIR2DS1 /// KIR2DS2 /// KIR2DS3 /// KIR2DS4 /// KIR3DL3 /// KIR3DL3 /// KIR3DS1 (11738374_at) / RFU C1QL1 (11718748_at) / Fold change /veh C1QL1 (11718748_at) / RFU TMPRSS4 (11747572_a_at) / Fold change /veh TMPRSS4 (11747572_a_at) / RFU HAMP (11756126_x_at) / Fold change /veh HAMP (11756126_x_at) / RFU RNFT2 (11725882_a_at) / Fold change /veh RNFT2 (11725882_a_at) / RFU NR4A2 (11747474_a_at) / Fold change /veh NR4A2 (11747474_a_at) / RFU ABCC12 (11746883_a_at) / Fold change /veh ABCC12 (11746883_a_at) / RFU TMEM136 (11760407_x_at) / Fold change /veh TMEM136 (11760407_x_at) / RFU CLDN22 /// WWC2 (11732394_at) / Fold change /veh CLDN22 /// WWC2 (11732394_at) / RFU HLA-DPB1 (11760878_x_at) / Fold change /veh HLA-DPB1 (11760878_x_at) / RFU SPINT1 (11716480_a_at) / Fold change /veh SPINT1 (11716480_a_at) / RFU GAP43 (11754022_s_at) / Fold change /veh GAP43 (11754022_s_at) / RFU A4GNT (11735810_at) / Fold change /veh A4GNT (11735810_at) / RFU PRB3 (11715151_x_at) / Fold change /veh PRB3 (11715151_x_at) / RFU TUBB4B (11761932_at) / Fold change /veh TUBB4B (11761932_at) / RFU CAPN14 (11732068_a_at) / Fold change /veh CAPN14 (11732068_a_at) / RFU TMCC2 (11721928_a_at) / Fold change /veh TMCC2 (11721928_a_at) / RFU IRGQ (11745062_a_at) / Fold change /veh IRGQ (11745062_a_at) / RFU FAM174B (11720279_a_at) / Fold change /veh FAM174B (11720279_a_at) / RFU TMPRSS4 (11748680_a_at) / Fold change /veh TMPRSS4 (11748680_a_at) / RFU FAM212B (11763350_a_at) / Fold change /veh FAM212B (11763350_a_at) / RFU PLEKHG5 (11743358_a_at) / Fold change /veh PLEKHG5 (11743358_a_at) / RFU ZSCAN30 (11745921_a_at) / Fold change /veh ZSCAN30 (11745921_a_at) / RFU CMKLR1 (11741424_a_at) / Fold change /veh CMKLR1 (11741424_a_at) / RFU LOC101060620 /// MAPK8IP1 (11723275_at) / Fold change /veh LOC101060620 /// MAPK8IP1 (11723275_at) / RFU SPTSSB (11747773_x_at) / Fold change /veh SPTSSB (11747773_x_at) / RFU PRSS12 (11739890_at) / Fold change /veh PRSS12 (11739890_at) / RFU BIN1 (11741810_x_at) / Fold change /veh BIN1 (11741810_x_at) / RFU WNT11 (11732464_a_at) / Fold change /veh WNT11 (11732464_a_at) / RFU C10orf10 (11716521_a_at) / Fold change /veh C10orf10 (11716521_a_at) / RFU C5orf56 (11738089_at) / Fold change /veh C5orf56 (11738089_at) / RFU CYB561 (11721691_x_at) / Fold change /veh CYB561 (11721691_x_at) / RFU ANKRD19P (11752326_a_at) / Fold change /veh ANKRD19P (11752326_a_at) / RFU OR2T12 /// OR2T33 /// OR2T8 (11738714_s_at) / Fold change /veh OR2T12 /// OR2T33 /// OR2T8 (11738714_s_at) / RFU VCAN (11748164_a_at) / Fold change /veh VCAN (11748164_a_at) / RFU JSRP1 (11732532_at) / Fold change /veh JSRP1 (11732532_at) / RFU KRTAP10-11 (11738290_x_at) / Fold change /veh KRTAP10-11 (11738290_x_at) / RFU MYO3A (11730013_a_at) / Fold change /veh MYO3A (11730013_a_at) / RFU EBF3 (11725865_a_at) / Fold change /veh EBF3 (11725865_a_at) / RFU CAMK2N1 (11719241_x_at) / Fold change /veh CAMK2N1 (11719241_x_at) / RFU C5orf56 (11738088_a_at) / Fold change /veh C5orf56 (11738088_a_at) / RFU OLFML3 (11715873_a_at) / Fold change /veh OLFML3 (11715873_a_at) / RFU LOC100653217 /// NTM (11731650_a_at) / Fold change /veh LOC100653217 /// NTM (11731650_a_at) / RFU MAPK11 (11762145_a_at) / Fold change /veh MAPK11 (11762145_a_at) / RFU FIZ1 (11724087_x_at) / Fold change /veh FIZ1 (11724087_x_at) / RFU OASL (11726364_x_at) / Fold change /veh OASL (11726364_x_at) / RFU SOX15 (11748057_x_at) / Fold change /veh SOX15 (11748057_x_at) / RFU CD79A (11719716_a_at) / Fold change /veh CD79A (11719716_a_at) / RFU HIST1H1D (11736915_at) / Fold change /veh HIST1H1D (11736915_at) / RFU CASKIN2 (11723855_a_at) / Fold change /veh CASKIN2 (11723855_a_at) / RFU LOC730098 (11760151_x_at) / Fold change /veh LOC730098 (11760151_x_at) / RFU OR4N2 (11742367_at) / Fold change /veh OR4N2 (11742367_at) / RFU PRRT2 (11749266_a_at) / Fold change /veh PRRT2 (11749266_a_at) / RFU SNX32 (11753110_a_at) / Fold change /veh SNX32 (11753110_a_at) / RFU CDHR5 (11726645_a_at) / Fold change /veh CDHR5 (11726645_a_at) / RFU RCAN1 (11760418_a_at) / Fold change /veh RCAN1 (11760418_a_at) / RFU FAM167A (11723789_a_at) / Fold change /veh FAM167A (11723789_a_at) / RFU FAM26E (11764081_at) / Fold change /veh FAM26E (11764081_at) / RFU ISYNA1 (11749810_s_at) / Fold change /veh ISYNA1 (11749810_s_at) / RFU ACY1 (11761880_at) / Fold change /veh ACY1 (11761880_at) / RFU 11764098_at / Fold change /veh 11764098_at / RFU SAMD14 (11745864_x_at) / Fold change /veh SAMD14 (11745864_x_at) / RFU NPB (11741838_a_at) / Fold change /veh NPB (11741838_a_at) / RFU TMPRSS6 (11731388_a_at) / Fold change /veh TMPRSS6 (11731388_a_at) / RFU KRTAP10-2 (11738614_at) / Fold change /veh KRTAP10-2 (11738614_at) / RFU ARHGAP8 /// PRR5-ARHGAP8 (11727945_x_at) / Fold change /veh ARHGAP8 /// PRR5-ARHGAP8 (11727945_x_at) / RFU KRTAP5-7 /// NADSYN1 (11734609_at) / Fold change /veh KRTAP5-7 /// NADSYN1 (11734609_at) / RFU RASL12 (11751679_a_at) / Fold change /veh RASL12 (11751679_a_at) / RFU CDKN2B (11736163_a_at) / Fold change /veh CDKN2B (11736163_a_at) / RFU PRF1 (11729649_at) / Fold change /veh PRF1 (11729649_at) / RFU, ZNF638 /// ZNF638-IT1 / Fold change vs veh, ZNF638 /// ZNF638-IT1 / RFU, PANK3 / Fold change vs veh, PANK3 / RFU, SH3YL1 / Fold change vs veh, SH3YL1 / RFU, ZEB2 / Fold change vs veh, ZEB2 / RFU, NRIP1 / Fold change vs veh, NRIP1 / RFU, PTTG1IP / Fold change vs veh, PTTG1IP / RFU, CAPN2 / Fold change vs veh, CAPN2 / RFU, MED14 / Fold change vs veh, MED14 / RFU, SNORA58 / Fold change vs veh, SNORA58 / RFU, C1orf63 / Fold change vs veh, C1orf63 / RFU, LRRFIP1 / Fold change vs veh, LRRFIP1 / RFU, NDUFAF7 / Fold change vs veh, NDUFAF7 / RFU, SLC12A2 / Fold change vs veh, SLC12A2 / RFU, IBTK / Fold change vs veh, IBTK / RFU, ESF1 / Fold change vs veh, ESF1 / Fold change vs veh, TMEM50B / RFU, TAOK1 / Fold change vs veh, TAOK1 / RFU, ACBD3 / Fold change vs veh, ACBD3 / RFU, TMA16 / Fold change vs veh, TMA16 / RFU, RWDD3 / Fold change vs veh, RWDD3 / RFU, BCAT1 / Fold change vs veh, BCAT1 / RFU, EDEM3 / Fold change vs veh, EDEM3 / RFU, TMEM33 / Fold change vs veh, TMEM33 / RFU, WDR75 / Fold change vs veh, WDR75 / RFU, AHCTF1 / Fold change vs veh, AHCTF1 / RFU, TFRC / Fold change vs veh, TFRC / RFU, ZDHHC17 / Fold change vs veh, ZDHHC17 / RFU, NOM1 / Fold change vs veh, NOM1 / RFU, ARL8B / Fold change vs veh, ARL8B / RFU, ZBTB11 / Fold change vs veh, ZBTB11 / RFU, TAMM41 / Fold change vs veh, TAMM41 / RFU, KIAA1704 /// LOC100996395 / Fold change vs veh, KIAA1704 /// LOC100996395 / RFU, ING1 / Fold change vs veh, ING1 / RFU, TRMT61B / Fold change vs veh, TRMT61B / RFU, FUBP3 / Fold change vs veh, FUBP3 / RFU, TP53 / Fold change vs veh, TP53 / RFU, TNKS2 / Fold change vs veh, TNKS2 / RFU, ZFP14 / Fold change vs veh, ZFP14 / RFU, ACTR2 / Fold change vs veh, ACTR2 / RFU, PPP3R1 / Fold change vs veh, PPP3R1 / RFU, PIK3R1 / Fold change vs veh, PIK3R1 / RFU, HNRNPA1 / Fold change vs veh, HNRNPA1 / RFU, RNF170 / Fold change vs veh, RNF170 / RFU, ZNF28 / Fold change vs veh, ZNF28 / RFU, RNGTT / Fold change vs veh, RNGTT / RFU, OGT / Fold change vs veh, OGT / RFU, BRD1 / Fold change vs veh, BRD1 / RFU, MARS / Fold change vs veh, MARS / RFU, ZNF655 / Fold change vs veh, ZNF655 / RFU, FAHD1 / Fold change vs veh, FAHD1 / RFU, BDP1 / Fold change vs veh, BDP1 / RFU, LRRCC1 / Fold change vs veh, LRRCC1 / RFU, ARID1A / Fold change vs veh, ARID1A / RFU, ZNF146 / Fold change vs veh, ZNF146 / RFU, ZNF330 / Fold change vs veh, ZNF330 / RFU, GPN3 / Fold change vs veh, GPN3 / RFU, C9orf123 / Fold change vs veh, C9orf123 / RFU, N4BP2L2 / Fold change vs veh, N4BP2L2 / RFU, ARFIP1 / Fold change vs veh, ARFIP1 / RFU, FAM179B / Fold change vs veh, FAM179B / RFU, BCL10 / Fold change vs veh, BCL10 / RFU, UHRF1BP1L / Fold change vs veh, UHRF1BP1L / RFU, BET1 / Fold change vs veh, BET1 / RFU, CNOT2 / Fold change vs veh, CNOT2 / RFU, ZNF268 / Fold change vs veh, ZNF268 / Fold change vs veh, ZNF507 / RFU, DGCR2 / Fold change vs veh, DGCR2 / RFU, WDSUB1 / Fold change vs veh, WDSUB1 / Fold change vs veh, HSP90B1 /// MIR3652 / RFU, ADSS / Fold change vs veh, ADSS / RFU, GK / Fold change vs veh, GK / RFU, ZNF148 / Fold change vs veh, ZNF148 / RFU, TAF9 / Fold change vs veh, TAF9 / RFU, SLC1A5 / Fold change vs veh, SLC1A5 / RFU, SLMO2 / Fold change vs veh, SLMO2 / RFU, ABCC4 / Fold change vs veh, ABCC4 / RFU, LOC101060439 /// RAP1B / Fold change vs veh, LOC101060439 /// RAP1B / RFU, RFX7 / Fold change vs veh, RFX7 / RFU, GTPBP10 / Fold change vs veh, GTPBP10 / RFU, CNEP1R1 / Fold change vs veh, CNEP1R1 / RFU, BIVM-ERCC5 /// ERCC5 / Fold change vs veh, BIVM-ERCC5 /// ERCC5 / RFU, ILF3 / Fold change vs veh, ILF3 / RFU 11762660_at / Fold change /veh 11762660_at / RFU VCAN (11757783_s_at) / Fold change /veh VCAN (11757783_s_at) / RFU DDX43 (11728927_at) / Fold change /veh DDX43 (11728927_at) / RFU KRT8 (11758188_x_at) / Fold change /veh KRT8 (11758188_x_at) / RFU NKD1 (11759106_at) / Fold change /veh NKD1 (11759106_at) / RFU SRD5A1 (11742802_a_at) / Fold change /veh SRD5A1 (11742802_a_at) / RFU TPSAB1 /// TPSB2 (11721975_s_at) / Fold change /veh TPSAB1 /// TPSB2 (11721975_s_at) / RFU GSTM3 (11746129_a_at) / Fold change /veh GSTM3 (11746129_a_at) / RFU IL23R (11737362_x_at) / Fold change /veh IL23R (11737362_x_at) / RFU TMEM51 (11727254_a_at) / Fold change /veh TMEM51 (11727254_a_at) / RFU PIWIL2 (11732686_x_at) / Fold change /veh PIWIL2 (11732686_x_at) / RFU ORM1 (11744905_x_at) / Fold change /veh ORM1 (11744905_x_at) / RFU CCDC152 (11743942_at) / Fold change /veh CCDC152 (11743942_at) / RFU ECM1 (11717891_a_at) / Fold change /veh ECM1 (11717891_a_at) / RFU IL23R (11748794_a_at) / Fold change /veh IL23R (11748794_a_at) / RFU TNFAIP8L3 (11732012_x_at) / Fold change /veh TNFAIP8L3 (11732012_x_at) / RFU MBOAT4 (11741988_at) / Fold change /veh MBOAT4 (11741988_at) / RFU 11764193_at / Fold change /veh 11764193_at / RFU TMEM53 (11763286_at) / Fold change /veh TMEM53 (11763286_at) / RFU MAGEB2 (11727129_at) / Fold change /veh MAGEB2 (11727129_at) / RFU TMEM200A (11744735_a_at) / Fold change /veh TMEM200A (11744735_a_at) / RFU CCDC152 (11751479_a_at) / Fold change /veh CCDC152 (11751479_a_at) / RFU FAM211A (11726209_a_at) / Fold change /veh FAM211A (11726209_a_at) / RFU RGS16 (11746705_a_at) / Fold change /veh RGS16 (11746705_a_at) / RFU VCAN (11755009_s_at) / Fold change /veh VCAN (11755009_s_at) / RFU RHOB (11743442_s_at) / Fold change /veh RHOB (11743442_s_at) / RFU RGS16 (11720943_a_at) / Fold change /veh RGS16 (11720943_a_at) / RFU RGS16 (11720944_at) / Fold change /veh RGS16 (11720944_at) / RFU, VPS4B / Fold change vs veh, VPS4B / RFU, CREB1 / Fold change vs veh, CREB1 / RFU, DNAJC13 / Fold change vs veh, DNAJC13 / RFU, GNAQ / Fold change vs veh, GNAQ / RFU, CDK5R1 / Fold change vs veh, CDK5R1 / RFU, ZRANB3 / Fold change vs veh, ZRANB3 / RFU, CUL4A / Fold change vs veh, CUL4A / RFU, CCNY / Fold change vs veh, CCNY / RFU, UFL1 / Fold change vs veh, UFL1 / RFU, COG3 / Fold change vs veh, COG3 / RFU, DIAPH2 / Fold change vs veh, DIAPH2 / RFU, SKA2 / Fold change vs veh, SKA2 / RFU, AFF3 / Fold change vs veh, AFF3 / RFU, LMF1 / Fold change vs veh, LMF1 / RFU, IPO11 / Fold change vs veh, IPO11 / RFU, DFFB / Fold change vs veh, DFFB / RFU, FOXP1 / Fold change vs veh, FOXP1 / RFU, CARD8 / Fold change vs veh, CARD8 / RFU, STRN3 / Fold change vs veh, STRN3 / RFU, ADK / Fold change vs veh, ADK / RFU, RASSF2 / Fold change vs veh, RASSF2 / RFU, WIPF1 / Fold change vs veh, WIPF1 / RFU, LARP1B / Fold change vs veh, LARP1B / RFU, RASA1 / Fold change vs veh, RASA1 / RFU, RB1 / Fold change vs veh, RB1 / RFU, PPFIA1 / Fold change vs veh, PPFIA1 / RFU, MAT2A / Fold change vs veh, MAT2A / RFU, CCT5 / Fold change vs veh, CCT5 / RFU, WDR92 / Fold change vs veh, WDR92 / RFU, CUX1 / Fold change vs veh, CUX1 / RFU, TTC7A / Fold change vs veh, TTC7A / RFU, TMEM135 / Fold change vs veh, TMEM135 / RFU, DEPTOR / Fold change vs veh, DEPTOR / RFU, CPM / Fold change vs veh, CPM / RFU, DNAJB6 / Fold change vs veh, DNAJB6 / RFU, CACNA2D3 / Fold change vs veh, CACNA2D3 / RFU, DTX4 / Fold change vs veh, DTX4 / RFU, TFCP2 / Fold change vs veh, TFCP2 / RFU, GMCL1 /// GMCL1P1 / Fold change vs veh, GMCL1 /// GMCL1P1 / RFU, AEBP2 / Fold change vs veh, AEBP2 / RFU, SNHG1 /// SNORD22 /// SNORD25 /// SNORD26 /// SNORD27 /// SNORD28 /// SNORD29 /// SNORD31 / Fold change vs veh, SNHG1 /// SNORD22 /// SNORD25 /// SNORD26 /// SNORD27 /// SNORD28 /// SNORD29 /// SNORD31 / Fold change (Aza/veh), C12orf56 (ProbeSet 11735607_a_at) / Fold change (ACY-1035/veh), C12orf56 (ProbeSet 11735607_a_at) / Fold change (Aza/veh), FGFR1OP (ProbeSet 11751329_s_at) / Fold change (ACY-1035/veh), FGFR1OP (ProbeSet 11751329_s_at) / Fold change (Aza/veh), VPS36 (ProbeSet 11739960_a_at) / Fold change (ACY-1035/veh), VPS36 (ProbeSet 11739960_a_at) / RFU SYPL1 (11715823_x_at) / Fold change /veh SYPL1 (11715823_x_at) / RFU IGFBP7 (11715501_s_at) / Fold change /veh IGFBP7 (11715501_s_at) / RFU REEP3 (11722064_at) / Fold change /veh REEP3 (11722064_at) / RFU IGLL1 (11728026_x_at) / Fold change /veh IGLL1 (11728026_x_at): dose or concentration left out as unconfirmed
Details: MV-4-11 cells, 48 hours

Structure (SMILES): Nc1ncn([C@@H]2O[C@H](CO)[C@@H](O)[C@H]2O)c(=O)n1 [azacitidine]
- RFU ORM1 (11744905_x_at): 10.48 RFU
